# Results published in US11542264B2, “Heteroaromatic NMDA receptor modulators and uses thereof” (Cadent Therapeutics, Inc., priority 2018, dated 2023).
# Entries after “also recorded” stand apart in the source; their conditions may differ. Read-outs that look alike come from different tables or passages of the source.
# What was measured:
# [1] = Rat liver microsome stability; type: in vitro ADME; details: for half-life: rat, liver microsomes, read-out: Rat liver microsome (RLM) stability t1/2
# From the text: (§1) The liver is the most important site of drug metabolism in the body. Approximately 60% of marketed compounds are cleared by hepatic CYP-mediated metabolism (McGinnity, D. F.; Soars, M. G.; Urbanowicz, R. A. and Riley, R. J.; Drug Metab. Disp. 32, 1247, (2004)). Liver microsomes are subcellular fractions which contain membrane bound drug metabolizing enzymes. Microsomes can be used to determine the in vitro intrinsic clearance of a compound. The use of species-specific microsomes can be used to enable an understanding of interspecies differences.
# hNR2D [2] = target: T1, hNR2D (Homo sapiens, UniProt O15399+Q05586); test: Oocyte 2EVC NR2D PAM activity; type: cell-based; details: oocytes expressing hNR2D, 10 μM glutamate and 10 μM glycine
# T1 construct: expressed in transfected cells
# T1 sequence (O15399 28-1336, other chains not shown): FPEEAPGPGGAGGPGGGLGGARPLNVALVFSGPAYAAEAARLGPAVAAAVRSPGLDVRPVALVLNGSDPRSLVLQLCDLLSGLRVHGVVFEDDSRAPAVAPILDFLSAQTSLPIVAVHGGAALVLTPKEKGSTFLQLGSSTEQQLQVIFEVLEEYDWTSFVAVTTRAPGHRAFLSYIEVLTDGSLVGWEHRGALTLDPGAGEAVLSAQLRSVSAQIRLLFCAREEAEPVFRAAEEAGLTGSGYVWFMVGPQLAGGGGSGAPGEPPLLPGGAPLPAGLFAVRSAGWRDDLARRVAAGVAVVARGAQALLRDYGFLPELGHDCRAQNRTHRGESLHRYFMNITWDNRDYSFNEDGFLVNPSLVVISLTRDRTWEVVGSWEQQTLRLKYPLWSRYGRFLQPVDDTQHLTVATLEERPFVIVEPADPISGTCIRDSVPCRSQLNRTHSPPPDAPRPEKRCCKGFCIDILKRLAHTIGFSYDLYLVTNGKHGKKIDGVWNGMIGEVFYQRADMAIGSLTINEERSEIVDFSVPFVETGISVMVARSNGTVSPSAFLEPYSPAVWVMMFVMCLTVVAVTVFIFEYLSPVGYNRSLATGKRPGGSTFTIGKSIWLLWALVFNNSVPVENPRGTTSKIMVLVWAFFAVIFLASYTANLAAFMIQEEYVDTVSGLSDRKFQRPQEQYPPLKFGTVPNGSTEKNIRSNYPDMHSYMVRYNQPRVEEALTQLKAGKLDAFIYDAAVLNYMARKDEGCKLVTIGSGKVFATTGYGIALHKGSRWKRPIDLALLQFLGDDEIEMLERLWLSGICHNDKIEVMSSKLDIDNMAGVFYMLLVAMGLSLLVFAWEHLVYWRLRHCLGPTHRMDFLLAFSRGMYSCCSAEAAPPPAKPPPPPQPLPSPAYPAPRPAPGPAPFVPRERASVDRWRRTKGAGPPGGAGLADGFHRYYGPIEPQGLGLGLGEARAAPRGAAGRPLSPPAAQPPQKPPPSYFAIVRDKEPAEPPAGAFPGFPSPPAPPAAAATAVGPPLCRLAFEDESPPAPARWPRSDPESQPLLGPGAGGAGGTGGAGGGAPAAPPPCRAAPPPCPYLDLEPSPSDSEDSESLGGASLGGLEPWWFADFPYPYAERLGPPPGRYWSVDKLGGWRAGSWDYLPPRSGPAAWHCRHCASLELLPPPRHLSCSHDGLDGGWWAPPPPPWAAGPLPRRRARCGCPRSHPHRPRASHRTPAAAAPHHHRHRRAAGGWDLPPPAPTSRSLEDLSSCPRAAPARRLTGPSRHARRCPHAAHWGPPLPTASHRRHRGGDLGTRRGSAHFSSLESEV
# From the text: (§2) EC50 refers to the concentration of a compound that gives half-maximal response.
# hNR2D [3] = target: T2, hNR2D (Homo sapiens, UniProt O15399); test: Oocyte 2EVC NR2D PAM activity; type: cell-based
# T2 construct: expressed in transfected cells
# T2 sequence (O15399 28-1336, other chains not shown): as above
# From the text: as §2
# [4] = test system: PCP-induced cognitive impairment; test: Rat Novel Object Recognition (NOR) test, PCP-induced cognitive impairment; details: for reversal of PCP-induced deficit in novel object exploration time: oral
# Protocol: Rats were treated twice daily for 7 days with either saline vehicle (control group) or PCP (5 mg/kg, intraperitoneal). Following a 14-day washout period of no treatment, rats were tested in the NOR paradigm. Briefly, testing involves two sessions (T1 and T2), each lasting 3 minutes, 1 hour apart. […] In T1, rats are placed in a test arena with two identical objects and allowed to freely explore while their time spent exploring each object is recorded. In T2, rats are returned to the test arena where one of the objects remains the same and the other has been replaced with a novel object. The time spent exploring the novel object versus the time spent exploring the familiar object are recorded and compared to T1 object exploration times.
# [5] = Human liver microsome stability; type: in vitro ADME
# From the text: as §1
# hNR2C = target: T3, hNR2C (Homo sapiens, UniProt Q14957); test: Oocyte 2EVC NR2C PAM activity; type: cell-based
# T3 construct: expressed in transfected cells
# T3 sequence (Q14957 20-1233, other chains not shown): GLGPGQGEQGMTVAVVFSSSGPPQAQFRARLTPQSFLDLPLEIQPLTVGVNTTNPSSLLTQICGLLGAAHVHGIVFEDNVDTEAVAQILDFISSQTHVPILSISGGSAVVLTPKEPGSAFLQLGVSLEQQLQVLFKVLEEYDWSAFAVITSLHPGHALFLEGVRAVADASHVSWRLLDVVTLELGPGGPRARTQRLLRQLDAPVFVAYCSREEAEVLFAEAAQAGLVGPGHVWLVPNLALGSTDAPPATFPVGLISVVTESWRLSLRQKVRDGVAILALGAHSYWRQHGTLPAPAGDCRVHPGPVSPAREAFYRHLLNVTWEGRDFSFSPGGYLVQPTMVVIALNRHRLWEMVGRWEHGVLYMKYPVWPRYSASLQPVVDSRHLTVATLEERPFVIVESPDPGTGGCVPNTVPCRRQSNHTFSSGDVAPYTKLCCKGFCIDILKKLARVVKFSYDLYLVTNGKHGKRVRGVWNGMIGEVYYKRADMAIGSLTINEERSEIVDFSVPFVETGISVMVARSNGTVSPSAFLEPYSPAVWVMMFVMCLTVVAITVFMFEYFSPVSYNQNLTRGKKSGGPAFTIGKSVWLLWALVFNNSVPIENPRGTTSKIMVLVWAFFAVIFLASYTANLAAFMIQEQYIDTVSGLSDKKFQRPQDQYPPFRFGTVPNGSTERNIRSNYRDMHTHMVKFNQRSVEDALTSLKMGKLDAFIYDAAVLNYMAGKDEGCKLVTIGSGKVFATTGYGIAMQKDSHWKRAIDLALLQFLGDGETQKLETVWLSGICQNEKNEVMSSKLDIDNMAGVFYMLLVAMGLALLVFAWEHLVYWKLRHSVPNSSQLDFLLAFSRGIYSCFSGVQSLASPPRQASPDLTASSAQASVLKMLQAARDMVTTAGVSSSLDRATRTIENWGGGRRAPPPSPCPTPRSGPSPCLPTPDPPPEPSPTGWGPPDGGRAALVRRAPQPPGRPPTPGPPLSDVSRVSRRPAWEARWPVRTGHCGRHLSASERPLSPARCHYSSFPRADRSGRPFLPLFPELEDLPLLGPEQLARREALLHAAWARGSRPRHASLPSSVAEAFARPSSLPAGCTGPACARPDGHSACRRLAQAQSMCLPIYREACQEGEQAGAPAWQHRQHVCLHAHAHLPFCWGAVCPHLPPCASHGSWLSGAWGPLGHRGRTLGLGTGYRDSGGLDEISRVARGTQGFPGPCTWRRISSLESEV
# From the text: as §2
# [6] = Aqueous solubility, shake-flask method; type: physicochemical; details: phosphate buffer saline, pH 7.4, shake-flask, HPLC-UV; for solubility: pH 7.4, aqueous buffer, kinetic from dmso stock
# Protocol: The aqueous solubility of the test compound was determined in phosphate buffer saline, pH 7.4, measured by shake-flask method. In this assay, DMSO stock solution of test compound was added to buffer followed by equilibration (shaking), filtration, and determination of soluble amount by HPLC-UV. […] Other imidazopyrazinone comparators from WO 2017/100591 are provided for reference. All comparator analogs are active and potency data is available in WO 2017/100591. This improvement is advantageous because improved aqueous solubility, in one aspect, is anticipated to provide enhanced in vivo performance in humans.
# [7] = test system: impairment of MMN by MK-801; test: Mismatch negativity (MMN) efficacy model; details: rat
# Protocol: Rats implanted with frontal EEG electrodes were presented with different audio stimuli comprising an auditory oddball “flip-flop” protocol. Briefly, 1,000 standard tones of 6.0 kHz were delivered at 90% probability, and 100 deviant tones of 8.0 kHz were delivered at 10% probability in pseudo-random order (the flip sequence), and then this sequence was then repeated with the 8 kHz tone as the standard, and the 6 kHz tone as the deviant (the flop sequence). MMN is calculated as a difference potential obtained by subtracting the averaged 8 kHz standard tone response (flop) from the averaged 8 kHz deviance tone response (flip) at each 1 ms time point over the EEG recording epochs from 50 ms prior to 150 ms after the onset of these 50 ms auditory tones.
# Test sessions were comprised of three 20-minute flip-flop blocks.
# hNR2B [8] = target: T4, hNR2B (Homo sapiens, UniProt Q13224); test: Oocyte 2EVC NR2B PAM activity; type: cell-based
# T4 construct: expressed in transfected cells
# From the text: as §2
# hNR2B [9] = target: T5, hNR2B (Homo sapiens, UniProt Q05586+Q13224); test: Oocyte 2EVC NR2B PAM activity; type: cell-based
# T5 construct: expressed in transfected cells
# T5 sequence (Q13224 27-1484, other chains not shown): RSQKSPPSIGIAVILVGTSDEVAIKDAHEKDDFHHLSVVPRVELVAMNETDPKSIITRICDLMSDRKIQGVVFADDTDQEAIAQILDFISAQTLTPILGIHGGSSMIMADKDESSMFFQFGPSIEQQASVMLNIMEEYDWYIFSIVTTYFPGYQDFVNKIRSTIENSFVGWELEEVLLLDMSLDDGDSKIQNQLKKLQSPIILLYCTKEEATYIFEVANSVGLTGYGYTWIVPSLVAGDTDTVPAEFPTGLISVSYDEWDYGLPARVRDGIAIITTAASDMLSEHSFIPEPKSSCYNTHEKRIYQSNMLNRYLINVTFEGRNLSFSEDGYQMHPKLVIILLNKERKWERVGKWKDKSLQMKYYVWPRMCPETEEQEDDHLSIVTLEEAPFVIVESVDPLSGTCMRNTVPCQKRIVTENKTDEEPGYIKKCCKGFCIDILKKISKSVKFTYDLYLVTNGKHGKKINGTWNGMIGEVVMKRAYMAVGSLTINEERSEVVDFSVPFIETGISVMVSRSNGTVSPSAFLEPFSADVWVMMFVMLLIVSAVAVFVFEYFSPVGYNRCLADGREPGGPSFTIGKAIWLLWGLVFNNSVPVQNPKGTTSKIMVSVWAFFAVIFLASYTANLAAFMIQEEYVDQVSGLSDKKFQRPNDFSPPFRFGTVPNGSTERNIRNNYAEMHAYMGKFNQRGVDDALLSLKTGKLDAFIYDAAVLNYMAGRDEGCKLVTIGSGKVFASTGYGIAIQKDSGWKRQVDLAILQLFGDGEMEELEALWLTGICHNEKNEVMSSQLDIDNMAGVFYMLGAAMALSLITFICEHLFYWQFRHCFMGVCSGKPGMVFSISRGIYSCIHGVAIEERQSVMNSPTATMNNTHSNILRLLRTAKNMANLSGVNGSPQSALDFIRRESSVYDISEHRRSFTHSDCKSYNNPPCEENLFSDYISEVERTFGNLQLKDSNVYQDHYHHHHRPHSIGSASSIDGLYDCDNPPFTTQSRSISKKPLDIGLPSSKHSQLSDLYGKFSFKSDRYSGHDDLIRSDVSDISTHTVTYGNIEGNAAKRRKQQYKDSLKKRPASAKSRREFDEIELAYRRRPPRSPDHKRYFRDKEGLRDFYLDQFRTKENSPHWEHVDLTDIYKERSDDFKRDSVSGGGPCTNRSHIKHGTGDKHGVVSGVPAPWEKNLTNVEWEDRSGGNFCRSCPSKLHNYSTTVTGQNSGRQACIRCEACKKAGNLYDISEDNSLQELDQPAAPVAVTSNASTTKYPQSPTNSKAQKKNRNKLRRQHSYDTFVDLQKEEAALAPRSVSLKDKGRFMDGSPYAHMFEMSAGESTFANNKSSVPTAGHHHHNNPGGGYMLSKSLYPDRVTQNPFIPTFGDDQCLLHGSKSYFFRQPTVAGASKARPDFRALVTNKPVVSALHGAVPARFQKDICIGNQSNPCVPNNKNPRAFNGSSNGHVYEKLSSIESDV
# From the text: as §2
# MDR1 = test: MDCK permeability and efflux assay; type: in vitro ADME; details: dog, MDR1-transfected MDCK cells
# From the text: (§3) Monolayer systems consist of a tight cell layer grown on a porous support to separate two fluid compartments. They are widely regarded as the most sophisticated in vitro tools for medium to high throughput modeling of important pharmacokinetic barriers, such as intestinal epithelium, blood-brain barrier, etc. (J. Pharm Sci. 2012 April; 101(4): 1337-1354). Two systems that are applied widely in monolayer studies are the human colon carcinoma cell line Caco-2 and MDR1-transfected MDCKII and LLC-PK1 cells. In monolayer assays, the flux of a compound through the monolayer of cells is measured. The unidirectional flux of the compound of interest is determined by applying it to either the apical or to the basolateral side of the cell layer and monitoring the time resolved redistribution of it between the two compartments. The vectorial transport ratio (often referred to as Efflux Ratio) is determined by applying bidirectional measurements [apical-to-basolateral (A-B) and basolateral-to-apical (B-A)]. […] In the absence of such transport processes this ratio is approximately 1.
# [10] = test system: MDR1-transfected MDCK cells; test: MDCK permeability and efflux assay; type: in vitro ADME
# From the text: as §3
# [11] = Rat IV pharmacokinetic study, in vivo clearance
# From the text: Rat microsomal stability data is provided as well. These improvements in in vitro and in vivo clearance are advantageous because reduced clearance, in one aspect, is anticipated to provide enhanced in vivo performance in humans.
# NMDA receptor = details: cited from earlier work; for % response recovered with Ro 25-6981 and DCKA: Table 49 of WO 2017/100591; for Maximum measured potentiation (%) with Ro 25-6981 and DCKA: comparator examples from WO 2017/100591
# [12] = 10 μM glutamate and 10 μM glycine
# [13] = 100% potentiation = doubling of current induced by glutamate/glycine
# [14] = Table 4, read-out: Oocyte 2EVC NR2B PAM: EC50
# [15] = Table 1, read-out: Oocyte 2EVC NR2B PAM: EC50
structure (smiles),measurement,setting,value
"CC1(F)CN(C(=O)Cn2cnc3c(c(-c4ccc(F)c(Cl)c4)cn3C3CC3)c2=O)C1 [Compound 1, 5-(3-chloro-4-fluorophenyl)-7-cyclopropyl-3-(2-(3-fluoro-3-methylazetidin-1-yl)-2-oxoethyl)-3,7-dihydro-4H-pyrrolo[2,3-d]pyrimidin-4-one]",stability in Rat Liver Microsomes (in words),[1],excellent stability
same,Rat liver microsome (RLM) stability t1/2,[1]; Table 4,>120 min
same,RLM t1/2,[1]; rat liver microsomes,>120 min
same,RLM % Metabolized after 30 min,"[1]; rat liver microsomes, 30 min",1.83%
same,microsomal CLint,"[1]; rat liver microsomes, read-out: RLM mCLint",< 5 µL/min/mg
same,half-life,[1]; Table 4,> 120 min
same,EC50,hNR2D [2],1890 nM
same,Oocyte 2EVC NR2D PAM: Concentration Required for Current Doubling,hNR2D [3]; [12],165 nM
same,Oocyte 2EVC NR2D PAM: Avg Max % Potentiation,hNR2D [3]; [13],1700%
same,reversal of PCP-induced deficit in novel object exploration time,[4]; 0.3 mg/kg,significantly reversed this deficit
same,reversal of PCP-induced deficit in novel object exploration time,[4]; 1.0 mg/kg,significantly reversed this deficit; also recorded: fully-reversed the PCP-induced deficit
same,stability in Human Liver Microsomes (in words),[5],good stability
same,HLM % Metabolized after 30 min,"[5]; human liver microsomes, 30 min",34.3%
same,microsomal CLint,"[5]; human liver microsomes, read-out: HLM mCLint",27.3 µL/min/mg
same,half-life,"[5]; human liver microsomes, read-out: HLM t1/2",50.8 min
same,Oocyte 2EVC NR2C PAM: Concentration Required for Current Doubling,hNR2C; [12],120 nM
same,Oocyte 2EVC NR2C PAM: Avg Max % Potentiation,hNR2C; [13],1800%
same,EC50,"hNR2C; oocytes expressing hNR2C, 10 μM glutamate and 10 μM glycine",1200 nM
same,solubility,[6],29 µM
same,MMN after Compound 1 plus MK-801,"[7]; 60 mg/kg BID, MK-801 0.2 mg/kg IP",prevented impairment of MMN by MK-801
same,Oocyte 2EVC NR2B PAM: Concentration Required for Current Doubling,hNR2B [8]; 5 μM glutamate and 3 μM glycine,160 nM
same,Oocyte 2EVC NR2B PAM: Avg Max % Potentiation,hNR2B [8]; [13],478%
same,EC50,"hNR2B [9]; oocytes expressing hNR2B, 5 μM glutamate and 3 μM glycine, read-out: Oocyte 2EVC NR2B PAM: Avg EC50",446 nM
same,Papp A→B,"MDR1; MDCK-MDR1, apical-to-basolateral",32 ×10⁻⁶ cm/s
same,Papp B→A,"MDR1; MDCK-MDR1, basolateral-to-apical",32 ×10⁻⁶ cm/s
same,efflux in the MDCK efflux assay (in words),[10]; MDCK,not subject to efflux
same,membrane penetration (in words),[10]; MDCK,penetrates membranes well
same,A-B MDCK Permeability,"[10]; apical-to-basolateral, MDR1-transfected MDCK cells",32.3 10^−6 cm/sec
same,B-A MDCK Permeability,"[10]; basolateral-to-apical, MDR1-transfected MDCK cells",32.1 10^−6 cm/sec
same,clearance,[11],7.4 mL/min/kg
O=C(Cn1ccc2scc(-c3ccc(F)c(Cl)c3)c2c1=O)N1CCCC1 [Example 3],half-life,[1]; Table 4,47.2 min
same,EC50,hNR2B [9]; [14],7010 nM
same,clearance,[11],43.6 mL/min/kg
O=C(Cn1ccc2scc(-c3ccc(F)c(Cl)c3)c2c1=O)N1CCC(F)C1 (centres unmarked) [Example 9],half-life,[1]; Table 4,37.8 min
same,EC50,hNR2B [9]; [14],3530 nM
same,clearance,[11],35.5 mL/min/kg
O=C(Cn1ccc2scc(-c3cnc(Cl)c(Cl)c3)c2c1=O)N1CCC(F)C1 (centres unmarked) [Example 12],half-life,[1]; Table 4,200 min
same,EC50,hNR2B [9]; [14],5630 nM
same,clearance,[11],19.4 mL/min/kg
CC1(F)CN(C(=O)Cn2ccc3scc(-c4ccc(F)c(Cl)c4)c3c2=O)C1 [Example 39],half-life,[1]; Table 4,42 min
same,EC50,hNR2B [9]; [14],726 nM
same,clearance,[11],27.8 mL/min/kg
CC1(F)CN(C(=O)Cn2ccc3scc(-c4ccc(Cl)c(Cl)c4)c3c2=O)C1 [Example 42],half-life,[1]; Table 4,36 min
same,EC50,hNR2B [9]; [14],463 nM
same,clearance,[11],26.9 mL/min/kg
CC1(F)CN(C(=O)Cn2ccc3scc(-c4ccc(F)c(C(F)(F)F)c4)c3c2=O)C1 [Example 43],half-life,[1]; Table 4,60.8 min
same,EC50,hNR2B [9]; [14],441 nM
same,clearance,[11],29.4 mL/min/kg
O=C(Cn1cnc2[nH]cc(-c3ccc(F)c(C(F)(F)F)c3)c2c1=O)N1CCC(F)C1 (centres unmarked) [Example 174],% response recovered with Ro 25-6981 and DCKA,NMDA receptor,91%
same,Maximum measured potentiation (%) with Ro 25-6981 and DCKA,NMDA receptor,124%
same,EC50,hNR2B [9]; [15],1500 nM
O=C(Cn1cnc2[nH]cc(-c3ccc(Cl)c(C(F)(F)F)c3)c2c1=O)N1C[C@@H](F)[C@@H](F)C1 [Example 181],% response recovered with Ro 25-6981 and DCKA,NMDA receptor,69%
same,Maximum measured potentiation (%) with Ro 25-6981 and DCKA,NMDA receptor,129%
same,EC50,hNR2B [9]; [15],1190 nM
CC1(F)CN(C(=O)Cn2ccc3c(c(-c4ccc(F)c(Cl)c4)cn3C3CC3)c2=O)C1 [Example 285],potency in the Ro 25-6981/DCKA assay (in words),NMDA receptor; data of WO 2017/100591,excellent potency
same,half-life,[1]; Table 4,37.8 min
same,EC50,hNR2B [9]; [14],200 nM
same,clearance,[11],22.2 mL/min/kg
CC1(F)CN(C(=O)Cn2ccn3ccc(-c4ccc(Cl)c(Cl)c4)c3c2=O)C1 [Example 396],half-life,[1]; Table 4,75 min
same,EC50,hNR2B [9]; [14],589 nM
same,clearance,[11],23.4 mL/min/kg
CC1(F)CN(C(=O)Cn2ccn3ccc(-c4ccc(F)c(Cl)c4)c3c2=O)C1 [Example 397],half-life,[1]; Table 4,37.3 min
same,EC50,hNR2B [9]; [14],1210 nM
same,clearance,[11],46.2 mL/min/kg
Cc1nc(-c2ccc(F)c(Cl)c2)c2c(=O)n(CC(=O)N3CC(C)(F)C3)ccn12 [Example 426],Aqueous solubility,[6],20 µM
Cc1nc(-c2ccc(F)c(C(F)(F)F)c2)c2c(=O)n(CC(=O)N3CCC(F)C3)ccn12 (centres unmarked) [Example 427],solubility,[6],7 µM
Cc1nc(-c2ccc(Cl)c(Cl)c2)c2c(=O)n(CC(=O)N3CCC(F)C3)ccn12 (centres unmarked) [Example 429],solubility,[6],26 µM
Cc1nc(-c2ccc(F)c(Cl)c2)c2c(=O)n(CC(=O)N3CC(C)(F)C3)ccn12 [Example 430],Aqueous solubility,[6],43 µM
O=C(Cn1ccn2c(C3CC3)nc(-c3ccc(Cl)c(Cl)c3)c2c1=O)N1CCC(F)C1 (centres unmarked) [Example 433],solubility,[6],30 µM
CC1(F)CN(C(=O)Cn2ccn3c(C4CC4)nc(-c4ccc(Cl)c(Cl)c4)c3c2=O)C1 [Example 435],solubility,[6],14 µM
CC1(F)CN(C(=O)Cn2ccn3c(C4CC4)nc(-c4ccc(F)c(Cl)c4)c3c2=O)C1 [Example 436],% response recovered with Ro 25-6981 and DCKA,NMDA receptor,100%
same,solubility,[6],3 µM
CC1(F)CN(C(=O)Cn2ccn3c(C4CC4)nc(-c4cnc(Cl)c(Cl)c4)c3c2=O)C1 [Example 437],solubility,[6],7 µM
CC1(F)CN(C(=O)Cn2ccn3c(C4CC4)nc(-c4ccc(F)c(C(F)(F)F)c4)c3c2=O)C1 [Example 438],solubility,[6],2 µM
Cc1cc(-c2nc(C3CC3)n3ccn(CC(=O)N4CC(C)(F)C4)c(=O)c23)ccc1Cl [Example 443],solubility,[6],91 µM
CC1(F)CN(C(=O)Cn2ccn3cnc(-c4ccc(F)c(Cl)c4)c3c2=O)C1 [Example 445],solubility,[6],14 µM
CC1(F)CN(C(=O)Cn2ccn3cnc(-c4ccc(F)c(C(F)(F)F)c4)c3c2=O)C1 [Example 446],solubility,[6],9 µM
CC1(F)CN(C(=O)Cn2ccn3cnc(-c4ccc(Cl)c(Cl)c4)c3c2=O)C1 [Example 447],solubility,[6],69 µM
C[C@]12N[C@H](Cc3ccccc31)c1ccccc12 [MK-801],MMN after vehicle plus MK-801 compared to vehicle plus saline,"[7]; MK-801 0.2 mg/kg, IP",significantly impaired MMN
"c1ccc(C2(N3CCCCC3)CCCCC2)cc1 [PCP, phencyclidine]",time spent exploring the novel object compared to saline control,"[4]; PCP 5 mg/kg intraperitoneal twice daily for 7 days, 14-day washout",significant reduction in time spent exploring the novel object
